Consider four compounds from PMC10514301 (Signal Transduction and Targeted Therapy, 2023).

Test [1] relates to SARS-CoV-2 Omicron BA.5 variant. The test is described as follows: Antiviral activity against SARS-CoV-2 Omicron BA.5 in Vero E6 cells (qRT-PCR). The class given is cell-based. (Real-time PCR tracks product formation cycle by cycle.)
Test [2] deals with SARS-CoV-2 Omicron BA.1 variant. The test is described as follows: Antiviral activity against SARS-CoV-2 Omicron BA.1 in Vero E6 cells (qRT-PCR). The class given is cell-based.
Test [3] concerns SARS-CoV-2 Delta variant. The test is described as follows: Antiviral activity against SARS-CoV-2 Delta in Vero E6 cells (viral RNA copies, qRT-PCR). The class given is cell-based.
Test [4] concerns SARS-CoV-2 variants (Delta, Omicron BA.1, and Omicron BA.5), HCoV-OC43, and HCoV-229E. The test is described as follows: organism not typed. It is filed as cell-based. The settings on record: read-out: half-maximal effective concentrations (EC50), range over HCoVs and cell lines.
Test [5] deals with SARS-CoV-2 Omicron BA.1 variant. The test is described as follows: Antiviral activity against SARS-CoV-2 Omicron BA.1 in HEK293T-hACE2-TMPRSS2 cells (qRT-PCR). It is filed as cell-based. The settings on record: Severe acute respiratory syndrome coronavirus 2, 24 h; read-out: EC50 mean ± sd, HEK293T-ACE2-T2, Omicron BA.1.
Test [6] has as its system SARS-CoV-2 Delta variant. The test is described as follows: Antiviral activity against SARS-CoV-2 Delta in HEK293T-hACE2-TMPRSS2 cells (qRT-PCR). The class given is cell-based. The settings on record: Severe acute respiratory syndrome coronavirus 2, 24 h; read-out: EC50 mean ± sd, HEK293T-ACE2-T2, Delta.
For test [7], the system named is SARS-CoV-2 Omicron BA.5 variant. The test is described as follows: Antiviral activity against SARS-CoV-2 Omicron BA.5 in HEK293T-hACE2-TMPRSS2 cells (qRT-PCR). The settings on record: Severe acute respiratory syndrome coronavirus 2, 24 h; read-out: EC50 mean ± sd, HEK293T-ACE2-T2, Omicron BA.5. It is filed as cell-based.
In test [8] the test system is SARS-CoV-2 Delta variant. It is filed as in vivo, K18-hACE2 mice.
[9] abbreviates: Severe acute respiratory syndrome coronavirus 2, Vero C1008, 24 h, read-out: EC50 mean ± sd, Vero E6, Omicron BA.5.
The mark [10] stands for this setting: Severe acute respiratory syndrome coronavirus 2, Vero C1008, 24 h, read-out: EC50 mean ± sd, Vero E6, Omicron BA.1.
[11] abbreviates: Severe acute respiratory syndrome coronavirus 2, Vero C1008, 24 h, read-out: EC50 mean ± sd, Vero E6, Delta.

For `CCC(CC)COC(=O)[C@H](C)N[P@](=O)(OC[C@H]1O[C@@](C#N)(c2ccc3c(N)ncnn23)[C@H](O)[C@@H]1O)Oc1ccccc1` [RDV, remdesivir], the EC50 was determined as 130 nM in test [1] (Severe acute respiratory syndrome coronavirus 2, Vero C1008, Vero E6 cells, read-out: EC50 against Omicron BA.5); 540 nM in test [2] (Severe acute respiratory syndrome coronavirus 2, Vero C1008, Vero E6 cells, read-out: EC50 against the SARS-CoV-2 Omicron BA.1 variant in Vero E6 cells); 2200 nM in test [3] (Severe acute respiratory syndrome coronavirus 2, Vero C1008, Vero E6 cells, read-out: EC50 against the SARS-CoV-2 Delta variant in Vero E6 cells).
In the case of `[2H]c1cc([C@]2(C#N)O[C@H](CO)[C@@H](O)[C@H]2O)n2ncnc(N)c12` [X1], the EC50 in test [4] is 60 to 1100 nM; in test [5], 720 ± 24 nM; in test [6] it was 150 ± 37 nM; in test [1] (setting [9]) it was 460 ± 4 nM; in test [2] (setting [10]), 300 ± 27 nM; in test [3] (setting [11]) it was 830 ± 71 nM. Further, in test [7], the EC50 worked out at 450 ± 100 nM.
Consider `CC(C)(C)[C@H](NC(=O)C(F)(F)F)C(=O)N1C[C@H]2[C@@H]([C@H]1C(=O)N[C@H](C#N)C[C@@H]1CCNC1=O)C2(C)C` [Nirmatrelvir, nirmatrelvir], for which the “expression of IL-6 and CCL2 in the lungs” value in test [8] (initial days (day 2)) is “reduction”. Besides, in test [8] (oral BID, […], VV116 50 and 100 mpk, nirmatrelvir 100 mpk with ritonavir 50 mpk, Combo = VV116 50 + nirmatrelvir 100 + ritonavir 50 mpk), the “reduction of lung viral loads compared to the vehicle group” value is listed as 1–2 log.
As for `N#C[C@@]1(c2ccc3c(N)ncnn23)O[C@H](CO)[C@@H](O)[C@H]1O` [GS-441524], the EC50 in test [5] is 380 ± 40 nM; in test [6], 250 ± 140 nM; in test [1] (setting [9]), 100 ± 11 nM; in test [2] (setting [10]) it was 280 ± 11 nM; in test [3] (setting [11]), 610 ± 79 nM; in test [7] it was 750 ± 64 nM.
